Among the data in patent US9944598B2, “Mono- or di-substituted indole derivatives as dengue viral replication inhibitors” (priority 2014, dated 2018) are melting point, EC50 and CC50 values, retold here.

pEC50: −log10 of the molar value.

Data set [1] deals with DENV-2 16681 strain labeled with eGFP. Nature of the data set: DENV-2 antiviral assay (eGFP fluorescence, Vero cells). The data set is classed as cell-based, Dengue virus. Particulars: DENV-2 16681 eGFP, MOI 0.5, 3 days. The method, then: The antiviral activity of all the compounds of the invention was tested against DENV-2 16681 strain which was labeled with enhanced green fluorescent protein (eGPF). The culture medium consists of minimal essential medium supplemented with 2% of heat-inactivated fetal calf serum, 0.04% gentamycin (50 mg/mL) and 2 mM of L-glutamine. Vero cells, obtained from ECACC, were suspended in culture medium and 25 μL was added to 384-well plates (2500 cells/well), which already contain the antiviral compounds. Typically, these plates contain a 4-fold serial dilution of 9 dilution steps of the test compound at 200 times the final concentration in 100% DMSO (200 nL). In addition, each compound concentration is tested in quadruplicate (final concentration range: 25 μM-0.00038 μM). Finally, each plate contains wells which are assigned as virus controls (containing cells and virus in the absence of compound), cell controls (containing cells in the absence of virus and compound) and medium controls (containing medium in the absence of cells, virus and compounds). To the wells assigned as medium control, 25 μL of culture medium was added instead of Vero cells. Once the cells were added to the plates, the plates were incubated for 30 minutes at room temperature to allow the cells to distribute evenly within the wells. Next, the plates were incubated in a fully humidified incubator (37° C., 5% CO2) until the next day. Then, DENV-2 strain 16681, labeled with eGFP, was added at a multiplicity of infection (MOI) of 0.5. Therefore, 15 μL of virus suspension was added to all the wells containing test compound and to the wells assigned as virus control. In parallel, 15 μL of culture medium was added to the medium and cell controls. Next, the plates were incubated for 3 days in a fully humidified incubator (37° C., 5% CO2). At the day of the read out, the eGFP fluorescence was measured using an automated fluorescence microscope at 488 nm (blue laser). Using an in-house LIMS system, inhibition dose response curves for each compound were calculated and the half maximal effective concentration (EC50) was determined. Therefore, the percent inhibition (I) for every test concentration is calculated using the following formula: I=100*(ST−SCC)/(SVC−SCC); ST, SCC and SVC are the amount of eGFP signal in the test compound, cell control and virus control wells, respectively. The EC50 represents the concentration of a compound at which the virus replication is inhibited with 50%, as measured by a 50% reduction of the eGFP fluorescent intensity compared to the virus control. The EC50 is calculated using linear interpolation (Table 1).

A short description of another data set: in vitro. The class given is cell-based. Particulars: African green monkey, CC50. The method, then:
(§1) In parallel, the toxicity of the compounds was assessed on the same plates. Once the read-out for the eGFP signal was done, 10 μL of resazurin, a cell viability stain, was added to all wells of the 384-well plates. The resazurin assay is based on the reduction of the blue resazurin by NADH, produced by the cells, into the highly fluorescent product, resorufin. The formation of pink fluorescent resorufin is directly related to the number of viable cells in the well. The plates were incubated for an additional 5 hours in a fully humidified incubator (37° C., 5% CO2). Next, the plates were measured on an Infinite reader (Tecan) using an excitation wavelength of 530 nm. The half maximal cytotoxic concentration (CC50) was also determined, defined as the concentration required to reduce the resazurin conversion by 50% compared to that of the cell control wells (Table 1). Finally, the selectivity index (SI) is determined for the compounds, which is calculated as followed: SI=CC50/EC50.

A further data set relates to Vero cells. Nature of the data set: in vitro. The conditions noted are these: African green monkey. The class given is cell-based. The method, then:
as §1

The mark [2] stands for this setting: Dengue virus, DENV2, Vero, 72 h.

Broadly, the melting point is the temperature of the solid-liquid transition. As usually defined, the pEC50 is −log10 of the EC50, conventionally taken in molar units. As a reminder, the CC50 is the concentration at which the toxic effect on the cells reaches its halfway point. As to `COc1cc(NC(C(=O)c2c[nH]c3c(C)c(Cl)ccc23)c2ccc(Cl)cc2OC)cc(OCCO)c1` (racemic) [Compound 3, 2-(4-chloro-2-methoxyphenyl)-1-(6-chloro-7-methyl-1H-indol-3-yl)-2-((3-(2-hydroxyethoxy)-5-methoxyphenyl)amino)ethanone], the melting point turned out to be 220 °C. The same compound gave a pEC50 in data set [1] (setting [2]) of 9.14. The compound also gave a 50% cytotoxic concentration (CC50) in “in vitro” of 5.5 µM.

For `COc1cc(NC(C(=O)c2c[nH]c3cc(Cl)ccc23)c2ccc(Cl)cc2OC)cc(OCCO)c1` (racemic) [Compound 4, 1-(6-chloro-1H-indol-3-yl)-2-(4-chloro-2-methoxyphenyl)-2-((3-(2-hydroxyethoxy)-5-methoxyphenyl)amino)ethanone], the melting point was determined as 154 °C. Further, the pEC50 in data set [1] (setting [2]) is 8.85. Also, in the data set “in vitro”, the CC50 came out at 6.3 µM.

Take `COc1cc(NC(C(=O)c2c[nH]c3c(C)c(F)ccc23)c2ccc(Cl)cc2OC)cc(OCCO)c1` (single isomer, unassigned) [Compound 2B, 2-(4-chloro-2-methoxyphenyl)-1-(6-fluoro-7-methyl-1H-indol-3-yl)-2-((3-(2-hydroxyethoxy)-5-methoxyphenyl)amino)ethanone]: the pEC50 in data set [1] was 7.09. For the same compound, in the data set on Vero cells, the CC50 worked out at 6.2 µM.

Take `COc1cc(NC(C(=O)c2c[nH]c3c(C)c(Cl)ccc23)c2ccc(Cl)cc2OC)cc(OCCO)c1` (single isomer, unassigned) [Compound 3B, 2-(4-chloro-2-methoxyphenyl)-1-(6-chloro-7-methyl-1H-indol-3-yl)-2-((3-(2-hydroxyethoxy)-5-methoxyphenyl)amino)ethanone]: the pEC50 in data set [1] was 7.35. The compound also gave a CC50 in the data set with Vero cells of 7.1 µM.

For the compound `COc1cc(NC(C(=O)c2c[nH]c3cc(Cl)ccc23)c2ccc(Cl)cc2OC)cc(OCCO)c1` (single isomer, unassigned) [Compound 4B, 1-(6-chloro-1H-indol-3-yl)-2-(4-chloro-2-methoxyphenyl)-2-((3-(2-hydroxyethoxy)-5-methoxyphenyl)amino)ethanone], the pEC50 in data set [1] was 7.35. This compound returned a CC50 in the data set with Vero cells of 7.4 µM.

Compound `COc1cc(NC(C(=O)c2c[nH]c3cc(OC)ccc23)c2ccc(Cl)cc2OC)cc(OCCO)c1` (single isomer, unassigned) [Compound 5B, 2-(4-chloro-2-methoxyphenyl)-2-((3-(2-hydroxyethoxy)-5-methoxyphenyl)amino)-1-(6-methoxy-1H-indol-3-yl)ethanone] had a negative-log EC50 (pEC50) in data set [1] of 6.40. This compound also gave a CC50 in the data set on Vero cells of 8.1 µM.

Turning to `COc1cc(NC(C(=O)c2c[nH]c3cc(OC)c(C)cc23)c2ccc(Cl)cc2OC)cc(OCCO)c1` (single isomer, unassigned) [Compound 6B, 2-(4-chloro-2-methoxyphenyl)-2-((3-(2-hydroxyethoxy)-5-methoxyphenyl)amino)-1-(6-methoxy-5-methyl-1H-indol-3-yl)ethanone], the negative logarithm of the EC50 (pEC50) in data set [1] was 7.12. The compound further returned a CC50 in the data set on Vero cells of 5.4 µM.

On to `COc1cc(NC(C(=O)c2c[nH]c3cc(OC)c(F)cc23)c2ccc(Cl)cc2OC)cc(OCCO)c1` (single isomer, unassigned) [Compound 7B, 2-(4-chloro-2-methoxyphenyl)-1-(5-fluoro-6-methoxy-1H-indol-3-yl)-2-((3-(2-hydroxyethoxy)-5-methoxyphenyl)amino)ethanone], for which, in data set [1], the pEC50 was 7.16. In the data set with Vero cells, it took 7.8 µM to reach half-maximal cytotoxicity (CC50).

Compound `COc1cc(NC(C(=O)c2c[nH]c3c(C)cc(F)cc23)c2ccc(Cl)cc2OC)cc(OCCO)c1` (single isomer, unassigned) [Compound 8B, 2-(4-chloro-2-methoxyphenyl)-1-(5-fluoro-7-methyl-1H-indol-3-yl)-2-((3-(2-hydroxyethoxy)-5-methoxyphenyl)amino)ethanone] gave a pEC50 in data set [1] of 6.59. The compound further yielded a CC50 with Vero cells of 5.7 µM.

`COc1cc(NC(C(=O)c2c[nH]c3c(F)cc(C)cc23)c2ccc(Cl)cc2OC)cc(OCCO)c1` (single isomer, unassigned) [Compound 10B, 2-(4-chloro-2-methoxyphenyl)-1-(7-fluoro-5-methyl-1H-indol-3-yl)-2-((3-(2-hydroxyethoxy)-5-methoxyphenyl)amino)ethanone] had a pEC50 in data set [1] of 6.72. Also, the CC50 with Vero cells amounted to 3.8 µM.
